Measurements taken from patent publication US6620839B2, “1,3-disubstituted and 1,3,3-trisubstituted pyrrolidines as histamine-3 receptor ligands and their therapeutic applications” (Abbott Laboratories, priority 2000, dated 2003).

Target: T1, histamine-3 receptor (Rattus norvegicus, UniProt Q9QYN8)
T1 construct: from tissue; host or cells: male Sprague-Dawley rat brain cortex membranes
Assay: Histamine-3 receptor binding, (3H)-N-α-methylhistamine displacement in rat cortical membranes
Settings: male Sprague-Dawley rat brain cortical membranes; (3H)-N-α-methylhistamine ~0.6 nM; 30 minutes at 25° C.; Cheng-Prusoff
Procedure: Briefly, male Sprague-Dawley rat brain cortices were homogenized (1 g tissue/10 mL buffer) in 50 mM Tris-HCl/5 mM EDTA containing protease inhibitor cocktail (Calbiochem) using a polytron set at 20,500 rpm. Homogenates were centrifuged for 20 minutes at 40,000×g. The supernatant was decanted, and pellets were weighed. The pellet was resuspended by polytron homogenization in 40 mL 50 mM Tris-HCl/5 mM EDTA with protease inhibitors and centrifuged for 20 minutes at 40,000×g. […] Test compounds were dissolved in DMSO to provide 20 mM solution, serially diluted and then added to the incubation mixtures prior to initiating the incubation assay by addition of the membranes. Thioperamide (3 μM) was used to determine nonspecific binding. Binding incubations were conducted for 30 minutes at 25° C. and terminated by addition of 2 mL of ice cold 50 mM Tris-HCl (pH 7.7) and filtration through 0.3% polyethylenimine-soaked Unifilter plates (Packard). These filters were washed 4 additional times with 2 mL of ice-cold 50 mM Tris-HCl and dried for 1 hour. Radioactivity was determined using liquid scintillation counting techniques. Results were analyzed by Hill transformation and Ki values were determined using the Cheng-Prusoff equation.

T1 sequence (Q9QYN8 whole entry): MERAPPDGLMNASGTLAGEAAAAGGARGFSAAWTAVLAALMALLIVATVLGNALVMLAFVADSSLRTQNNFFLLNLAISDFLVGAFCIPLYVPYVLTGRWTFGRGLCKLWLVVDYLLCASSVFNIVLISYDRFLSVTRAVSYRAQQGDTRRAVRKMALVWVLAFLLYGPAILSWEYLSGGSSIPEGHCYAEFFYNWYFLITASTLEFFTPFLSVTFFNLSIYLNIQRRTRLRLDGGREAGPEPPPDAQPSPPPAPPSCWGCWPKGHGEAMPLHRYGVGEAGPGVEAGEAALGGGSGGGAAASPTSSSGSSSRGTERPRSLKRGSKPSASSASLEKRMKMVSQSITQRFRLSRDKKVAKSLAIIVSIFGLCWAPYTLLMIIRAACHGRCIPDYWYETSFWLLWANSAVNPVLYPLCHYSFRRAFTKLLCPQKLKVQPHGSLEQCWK

SMILES | Ki [nM]
N#Cc1ccc(-c2ccc(OCCCN3CC[C@@H](NS(=O)(=O)c4ccccc4F)C3)cc2)cc1 [Example 29] | 5.9
N#Cc1ccc(-c2ccc(OCCCN3CC[C@@H](NS(=O)(=O)c4cccc(F)c4)C3)cc2)cc1 [Example 49] | 13
N#Cc1ccc(-c2ccc(OCCCN3CC[C@@H](NS(=O)(=O)c4ccccc4OC(F)(F)F)C3)cc2)cc1 [Example 45] | 127
COc1ccc(OC)c(S(=O)(=O)N[C@@H]2CCN(CCCOc3ccc(C(=O)C4CC4)cc3)C2)c1 [Example 63, N-((3R)-1-{3-[4-(cyclopropylcarbonyl)phenoxy]propyl}pyrrolidinyl)-2,5-dimethoxybenzenesulfonamide] | 12
O=C(c1ccc(OCCCN2CC[C@@H](NS(=O)(=O)c3ccccc3OC(F)(F)F)C2)cc1)C1CC1 [Example 89, N-((3R)-1-{3-[4-(cyclopropylcarbonyl)phenoxy]propyl}pyrrolidinyl)-2-(trifluoromethoxy)benzenesulfonamide] | 11
N#Cc1ccc(-c2ccc(OCCCN3CC[C@@H](NS(=O)(=O)c4ccc(F)c(Cl)c4)C3)cc2)cc1 [Example 26, 3-chloro-N-((3R)-1-{3-[(4′-cyano[1,1′-biphenyl]-4-yl)oxy]propyl}pyrrolidinyl)-4-fluorobenzenesulfonamide] | 57
N#Cc1ccc(-c2ccc(OCCCN3CC[C@@H](NS(=O)(=O)c4cccc(Cl)c4)C3)cc2)cc1 [Example 31, 3-chloro-N-((3R)-1-{3-[(4′-cyano[1,1′-biphenyl]-4-yl)oxy]propyl}pyrrolidinyl)benzenesulfonamide] | 30
O=C(N[C@@H]1CCN(CCCOc2ccc(C(=O)C3CC3)cc2)C1)c1csc(-c2cccnc2)n1 [Example 13, N-((3R)-1-{3-[4-(cyclopropylcarbonyl)phenoxy]propyl}pyrrolidinyl)-2-(3-pyridinyl)-1,3-thiazole-4-carboxamide] | 50
CC(=O)c1ccc(OCCCN2CC[C@@H](NC(=O)c3ccc(C#N)cc3)C2)cc1 [Example 14, N-{(3R)-1-[3-(4-acetylphenoxy)propyl]pyrrolidinyl}-4-cyanobenzamide] | 40
CC(C)c1ccc(S(=O)(=O)N[C@@H]2CCN(CCCOc3ccc(-c4ccc(C#N)cc4)cc3)C2)cc1 [Example 28] | 16

More lines, now with the values ahead:

Ki [nM] | SMILES
10 | CN(C(=O)c1ccc(C#N)cc1)[C@@H]1CCN(CCCOc2ccc(-c3ccc(C#N)cc3)cc2)C1 [Example 120, 4-cyano-N-((3R)-1-{3-[(4′-cyano[1,1′-biphenyl]-4-yl)oxy]propyl}pyrrolidinyl)-N-methylbenzamide]
85 | N#Cc1ccc(-c2ccc(OCCCN3CC[C@@H](NC(=O)c4csc(-c5cccnc5)n4)C3)cc2)cc1 [Example 143]
9.6 | CN(C)S(=O)(=O)N[C@@H]1CCN(CCCOc2ccc(-c3ccc(C#N)cc3)cc2)C1 [Example 145]
2.8 | Cc1cccc(S(=O)(=O)N[C@@H]2CCN(CCCOc3ccc(C(=O)C4CC4)cc3)C2)c1 [Example 91, N-((3R)-1-{3-[4-(cyclopropylcarbonyl)phenoxy]propyl}pyrrolidinyl)-3-methylbenzenesulfonamide]
14 | CN(C(=O)N1CCCC1)[C@@H]1CCN(CCCOc2ccc(-c3ccc(C#N)cc3)cc2)C1 [Example 116]
48 | Cc1cc(-c2ccc(OCCCN3CC[C@@H](N(C)C)C3)cc2)ccc1C#N [Example 164, 4′-{3-[(3R)-3-(dimethylamino)-1-pyrrolidinyl]propoxy}-3-methyl-1,1′-biphenyl-4-carbonitrile]
4.9 | O=C(c1ccc(OCCCN2CC[C@@H](NS(=O)(=O)c3ccc(C(F)(F)F)cc3)C2)cc1)C1CC1 [Example 92, N-((3R)-1-{3-[4-(cyclopropylcarbonyl)phenoxy]propyl}pyrrolidinyl)-4-(trifluoromethyl)benzenesulfonamide]
267 | N#Cc1ccc(-c2ccc(OCCCN3CC[C@@H](N(C(=O)N4CCOCC4)C(=O)N4CCOCC4)C3)cc2)cc1 [Example 150]
5.6 | CN(C(=O)c1csc(-c2cccnc2)n1)[C@@H]1CCN(CCCOc2ccc(-c3ccc(C#N)cc3)cc2)C1 [Example 123]
